ChEMBL document CHEMBL4715805, “Structure-Activity Relationship for Sulfonamide Inhibition of Helicobacter pylori α-Carbonic Anhydrase” (J Med Chem, 2016)

Assay: Inhibition of Helicobacter pylori alpha-carbonic anhydrase expressed in Escherichia coli assessed as inhibition constant preincubated for 15 mins prior to testing by phenol red-based stopped-flow CO2 hydration assay

Cn1nc(S(N)(=O)=O)s/c1=N/S(=O)(=O)c1ccc(C(C)(C)C)cc1
Ki: 8.2 nM
